Source: patent publication US7507728B2, “Halogen substituted imidazol[1,5-A][1,2,4]triazolo[1,5-D][1,4]benzodiazepine derivatives” (priority 2004, dated 2009)
Like-named read-outs stand apart in the source and are kept apart here.

Legend:
[1] = target: T1, GABA A receptor α2β3γ2 (hα2) (Homo sapiens, UniProt P18507+P47869); test: [3H]flumazenil competition binding, human GABA A α2β3γ2
T1 construct: expressed in transfected cells; host or cells: HEK293, transiently transfected; membranes
Experimental: (§1) The affinity of compounds at GABA A receptor subtypes was measured by competition for [^3H]flumazenil (85 Ci/mmol; Roche) binding to HEK293 cells expressing rat (stably transfected) or human (transiently transfected) receptors of composition α1β3γ2, α2β3γ2, α3β3γ2 and α5β3γ2.
(§2) Cell pellets were suspended in Krebs-tris buffer (4.8 mM KCl, 1.2 mM CaCl2, 1.2 mM MgCl2, 120 mM NaCl, 15 mM Tris; pH 7.5; binding assay buffer), homogenized by polytron for ca. 20 sec on ice and centrifuged for 60 min at 4° C. (50000 g; Sorvall, rotor: SM24=20000 rpm). The cell pellets were resuspended in Krebs-tris buffer and homogenized by polytron for ca. 15 sec on ice. Protein was measured (Bradford method, Bio-Rad) and aliquots of 1 mL were prepared and stored at −80° C.
(§3) Radioligand binding assays were carried out in a volume of 200 μL (96-well plates) which contained 100 μL of cell memebranes, [^3H]flumazenil at a concentration of 1 nM for α1, α2, α3 subunits and 0.5 nM for α5 subunits and the test compound in the range of 10^−10−3×10^−6 M. Nonspecific binding was defined by 10^−5 M diazepam and typically represented less than 5% of the total binding. Assays were incubated to equilibrium for 1 hour at 4° C. and harvested onto GF/C uni-filters (Packard) by filtration using a Packard harvester and washing with ice-cold wash buffer (50 mM Tris; pH 7.5). After drying, filter-retained radioactivity was detected by liquid scintillation counting. Ki values were calculated using Excel-Fit (Microsoft) and are the means of two determinations.

[2] = target: T2, GABA A receptor α5β3γ2 (hα5) (Homo sapiens, UniProt P18507+P31644); test: [3H]flumazenil competition binding, human GABA A α5β3γ2
T2 construct: expressed in transfected cells; host or cells: HEK293, transiently transfected; membranes
Experimental: as §1, §2, §3

[3] = target: T3, GABA A receptor α3β3γ2 (hα3) (Homo sapiens, UniProt P18507+P34903); test: [3H]flumazenil competition binding, human GABA A α3β3γ2
T3 construct: expressed in transfected cells; host or cells: HEK293, transiently transfected; membranes
Experimental: as §1, §2, §3

[4] = target: T4, GABA A receptor α1β3γ2 (hα1) (Homo sapiens, UniProt P14867+P18507); test: [3H]flumazenil competition binding, human GABA A α1β3γ2
T4 construct: expressed in transfected cells; host or cells: HEK293, transiently transfected; membranes
Experimental: as §1, §2, §3

[5] = HEK293 cells transiently transfected, 0.5 nM [3H]flumazenil, mean of two determinations, read-out: Ki[nM] hα5
[6] = HEK293 cells transiently transfected, 1 nM [3H]flumazenil, mean of two determinations, read-out: Ki[nM] hα1
[7] = HEK293 cells transiently transfected, 1 nM [3H]flumazenil, mean of two determinations, read-out: Ki[nM] hα2
[8] = HEK293 cells transiently transfected, 1 nM [3H]flumazenil, mean of two determinations, read-out: Ki[nM] hα3

In the case of `Clc1ncn2c1Cn1ncnc1-c1ccccc1-2` [Example 1, 10-Chloro-9H-imidazo[1,5-a][1,2,4]triazolo[1,5-d][1,4]benzodiazepine], the Ki [1] is reported as 1.5 nM, the Ki [2, 5] is reported as 0.3 nM and the Ki [3] is reported as 0.7 nM. The Ki [4, 6] was 3.8 nM.

Work on `Fc1ccc2c(c1)-c1ncnn1Cc1c(Cl)ncn1-2` [Example 2, 10-Chloro-3-fluoro-9H-imidazo[1,5-a][1,2,4]triazolo[1,5-d][1,4]benzodiazepine] yielded a Ki [1] of 1.2 nM, a Ki [2, 5] of 0.3 nM and a Ki [3] of 0.78 nM. It also gave a Ki [4, 6] of 0.7 nM.

Compound `COc1ccc2c(c1)-c1ncnn1Cc1c(Cl)ncn1-2` [Example 3, 10-Chloro-3-methoxy-9H-imidazo[1,5-a][1,2,4]triazolo[1,5-d][1,4]benzodiazepine] has a Ki [1] of 17.2 nM, a Ki [2, 5] of 0.8 nM and a Ki [3] of 11.7 nM. For the same compound, the Ki [4, 6] was 12.2 nM.

Work on `FCCOc1ccc2c(c1)-c1ncnn1Cc1c(Cl)ncn1-2` [Example 7, 10-Chloro-3-(2-fluoro-ethoxy)-9H-imidazo[1,5-a][1,2,4]triazolo[1,5-d][1,4]benzodiazepine] yielded a Ki [1] of 25 nM, a Ki [2, 5] of 1.3 nM and a Ki [3] of 20.7 nM. It also gave a Ki [4, 6] of 18.5 nM.

With `FC(F)COc1ccc2c(c1)-c1ncnn1Cc1c(Cl)ncn1-2` [Example 8, 10-Chloro-3-(2,2-difluoro-ethoxy)-9H-imidazo[1,5-a][1,2,4]triazolo[1,5-d][1,4]benzodiazepine] the Ki [1] was 29.4 nM, the Ki [2, 5] was 2 nM and the Ki [3] was 24.4 nM. It also gave a Ki [4, 6] of 22.1 nM.

`C=COc1ccc2c(c1)-c1ncnn1Cc1c(Cl)ncn1-2` [Example 10, 10-Chloro-3-vinyloxy-9H-imidazo[1,5-a][1,2,4]triazolo[1,5-d][1,4]benzodiazepine] showed a Ki [1] of 25.6 nM, a Ki [2, 5] of 1.2 nM and a Ki [3] of 11.4 nM. For the same compound, the Ki [4, 6] was 22.4 nM.

For `CNc1ccc2c(c1)-c1ncnn1Cc1c(Cl)ncn1-2` [Example 12, 10-Chloro-3-methylamino-9H-imidazo[1,5-a][1,2,4]triazolo[1,5-d][1,4]benzodiazepine], the Ki [1] was 15.7 nM, the Ki [2, 5] was 1.8 nM and the Ki [3] was 8 nM. The Ki [4, 6] was 5.9 nM.

In the case of `Clc1ncn2c1Cn1ncnc1-c1cc(Br)ccc1-2` [Example 21, 3-Bromo-10-chloro-9H-imidazo[1,5-a][1,2,4]triazolo[1,5-d][1,4]benzodiazepine], the Ki [1, 7] is reported as 24.1 nM, the Ki [2, 5] is reported as 1.4 nM and the Ki [3, 8] is reported as 8.8 nM. For the same compound, the Ki [4, 6] was 33 nM.

`Cc1ccc2c(c1)-c1ncnn1Cc1c(Cl)ncn1-2` [Example 22, 10-Chloro-3-methyl-9H-imidazo[1,5-a][1,2,4]triazolo[1,5-d][1,4]benzodiazepine] showed a Ki [1] of 40.5 nM, a Ki [2, 5] of 1.8 nM and a Ki [3] of 21.4 nM. For the same compound, the Ki [4, 6] was 19.6 nM.

For `Clc1ncn2c1Cn1ncnc1-c1cc(C3CC3)ccc1-2` [Example 30, 10-Chloro-3-cyclopropyl-9H-imidazo[1,5-a][1,2,4]triazolo[1,5-d][1,4]benzodiazepine], the Ki [1] was 18.7 nM, the Ki [2, 5] was 1.2 nM and the Ki [3] was 20.4 nM. It also gave a Ki [4, 6] of 28.7 nM.

For `FC(F)c1ccc2c(c1)-c1ncnn1Cc1c(Cl)ncn1-2` [Example 32, 10-Chloro-3-difluoromethyl-9H-imidazo[1,5-a][1,2,4]triazolo[1,5-d][1,4]benzodiazepine], the Ki [1] was 40.1 nM, the Ki [2, 5] was 1.1 nM and the Ki [3] was 16 nM. It also gave a Ki [4, 6] of 20.5 nM.

Compound `Brc1ncn2c1Cn1ncnc1-c1ccccc1-2` [Example 46, 10-Bromo-9H-imidazo[1,5-a][1,2,4]triazolo[1,5-d][1,4]benzodiazepine] has a Ki [1] of 0.8 nM, a Ki [2, 5] of 0.2 nM and a Ki [3] of 0.6 nM. The Ki [4, 6] was 2.4 nM.

For `Fc1ccc2c(c1)-c1ncnn1Cc1c(Br)ncn1-2` [Example 47, 10-Bromo-3-fluoro-9H-imidazo[1,5-a][1,2,4]triazolo[1,5-d][1,4]benzodiazepine], the Ki [1] was 3.7 nM, the Ki [2, 5] was 0.5 nM and the Ki [3] was 3.9 nM. It also gave a Ki [4, 6] of 2.1 nM.

Work on `Clc1ccc2c(c1)-c1ncnn1Cc1c(I)ncn1-2` [Example 48, 3-Chloro-10-iodo-9H-imidazo[1,5-a][1,2,4]triazolo[1,5-d][1,4]benzodiazepine] yielded a Ki [1] of 14.7 nM, a Ki [2, 5] of 1.4 nM and a Ki [3] of 11.3 nM. For the same compound, the Ki [4, 6] was 9.2 nM.

`O=C(Nc1ccc2c(c1)-c1ncnn1Cc1c(Cl)ncn1-2)C1CC1` [Example 50, 3-(Cyclopropanecarbonyl-amino)-10-chloro-9H-imidazo[1,5-a][1,2,4]triazolo[1,5-d][1,4]benzodiazepine] gave a Ki [2, 5] of 15.8 nM.

Work on `Clc1ncn2c1Cn1ncnc1-c1cc(-c3cccnc3)ccc1-2` [Example 57, 10-Chloro-3-(pyridin-3-yl)-9H-imidazo[1,5-a][1,2,4]triazolo[1,5-d][1,4]benzodiazepine] yielded a Ki [1] of 33.9 nM, a Ki [2, 5] of 6.7 nM and a Ki [3] of 21.7 nM. For the same compound, the Ki [4, 6] was 9.4 nM.

With `CCCc1ccc2c(c1)-c1ncnn1Cc1c(Cl)ncn1-2` [Example 64, 10-Chloro-3-propyl-9H-imidazo[1,5-a][1,2,4]triazolo[1,5-d][1,4]benzodiazepine] the Ki [1, 7] was 136 nM, the Ki [2, 5] was 7 nM and the Ki [3, 8] was 187 nM. The Ki [4, 6] was 58.8 nM.

Compound `CCCCc1ccc2c(c1)-c1ncnn1Cc1c(Cl)ncn1-2` [Example 65, 3-Butyl-10-chloro-9H-imidazo[1,5-a][1,2,4]triazolo[1,5-d][1,4]benzodiazepine] has a Ki [1, 7] of 106 nM, a Ki [2] of 9.6 nM and a Ki [3, 8] of 115 nM. It also gave a Ki [4] of 39.2 nM.

For `C=Cc1ccc2c(c1)-c1ncnn1Cc1c(Cl)ncn1-2` [Example 66, 10-Chloro-3-vinyl-9H-imidazo[1,5-a][1,2,4]triazolo[1,5-d][1,4]benzodiazepine], the Ki [1, 7] was 17.5 nM, the Ki [2, 5] was 1.4 nM and the Ki [3, 8] was 16.8 nM. It also gave a Ki [4, 6] of 20.6 nM.

Work on `COC(=O)c1ccc2c(c1)-c1ncnn1Cc1c(Cl)ncn1-2` [Example 69, 10-Chloro-3-(methoxy-carbonyl)-9H-imidazo[1,5-a][1,2,4]triazolo[1,5-d][1,4]benzodiazepine] yielded a Ki [1] of 11.6 nM, a Ki [2, 5] of 1 nM and a Ki [3] of 7.5 nM. For the same compound, the Ki [4, 6] was 7.5 nM.

For `C=C=Cc1ccc2c(c1)-c1ncnn1Cc1c(Cl)ncn1-2` [Example 70, 10-Chloro-3-(propa-1,2-dienyl)-9H-imidazo[1,5-a][1,2,4]triazolo[1,5-d][1,4]benzodiazepine], the Ki [1] was 30.3 nM, the Ki [2, 5] was 3.2 nM and the Ki [3] was 30.7 nM. It also gave a Ki [4, 6] of 26.9 nM.

`Clc1ncn2c1Cn1ncnc1-c1cc(NC3CC3)ccc1-2` [Example 72, 10-chloro-3-cyclopropylamino-9H-imidazo[1,5-a][1,2,4]triazolo[1,5-d][1,4]benzodiazepine] showed a Ki [1] of 93.7 nM, a Ki [2, 5] of 2.2 nM and a Ki [3] of 78.8 nM. It also gave a Ki [4, 6] of 21 nM.
